Test results reported in patent US20070006551A1, “Method and apparatus for sterilizing and filling containers” (priority 2005, published 2007).
Several values for one entry are separate records, joined by “and”; a condition that tells them apart may be missing. Identical values can stand only once. Like-named read-outs stand apart in the source and are kept apart here.

How the values were obtained:
[1] = system: B. subtilis var. globigii (ATCC. 9372)
Procedure: (§1) The experiments were designed to identify the conditions optimal for polymer sterilization and also explore the boundary areas to determine the conditions limiting the efficacy of the treatment. Each polymer strip was inoculated by drop spotting approximately 100 micro-liters and coating the surface by swabbing the surface of the polyethylene strip. The culture was allowed to dry before sterilization. Each strip of polyethylene was treated by vigorously agitating the strip in the appropriate treatment solutions. Each treated polymer strip was then treated with catalase to inactivate residual peroxide, swabbed and plated using TGE incubated at 35° C. for two days.
Five replicate polymer strips were used for each of the two methods of the present invention. A log measurement value is provided below each of the non-log values. The first method uses hydrogen peroxide first and then an alkaline solution of sodium hydroxide. The second method uses an alkaline solution of sodium hydroxide first and then hydrogen peroxide. The sterilization was conducted at 50° C.
In Table Three, a solution of 0.1 Normal potassium hydroxide (KOH) was utilized with a solution of 3% hydrogen peroxide at a temperature of 35° C. for 30 seconds.

[2] = system: B. subtilis var. globigii (ATCC. 9372); details: 50° C.; for bacteriocidal effect (in words): Table Two conditions; for CFU/Swab / logCFU/Swab / Average (logCFU/Swab) / Log reduction: Table Two; for CFU/Swab / logCFU/Swab: contact times as in the label, one value per replicate; for Average (logCFU/Swab): mean of replicates; for Log reduction: versus inoculated untreated control (6.66)
Procedure: as §1
A log measurement value is provided below each of the non-log values. The sterilization was conducted at 50° C.

[3] = Table Three, 35° C. for 30 seconds, one value per replicate

SMILES | bacteriocidal effect (in words) [2] | CFU/Swab [2] | logCFU/Swab [2] | Average (logCFU/Swab) [2] | Log reduction [2] | also measured
[Na+].[OH-] [1M NaOH Control, sodium hydroxide] |  |  |  |  |  | CFU/Swab ([1]; Table One, 50° C., survivors after treatment, inoculum 10^6, one value per replicate strip): 5,700 CFU/Swab and 210 CFU/Swab; logCFU/Swab ([1]; Table One, 50° C., survivors after treatment, one value per replicate strip): 3.76 logCFU/Swab and 2.32 logCFU/Swab
[Na+].[OH-] [50° C. 10 s 0.25M NaOH Control, sodium hydroxide] | no bacteriocidal effect | 3,800,000 CFU/Swab and 7,900,000 CFU/Swab and 5,400,000 CFU/Swab and 6,300,000 CFU/Swab | 6.80 logCFU/Swab and 6.58 logCFU/Swab and 6.90 logCFU/Swab and 6.73 logCFU/Swab | 6.75 |  | 
OO [50° C. 30 s 3.5% H2O2 10 s catalase, hydrogen peroxide] | no effect | 4,200,000 CFU/Swab and 4,000,000 CFU/Swab and 3,000,000 CFU/Swab and 5,000,000 CFU/Swab and 1,600,000 CFU/Swab | 6.20 logCFU/Swab and 6.62 logCFU/Swab and 6.60 logCFU/Swab and 6.48 logCFU/Swab and 6.70 logCFU/Swab | 6.52 | 0.14 | 
OO [50° C. 30 s 35% H2O2 10 s catalase, hydrogen peroxide] |  | 570 CFU/Swab and 20 CFU/Swab and 270 CFU/Swab and 2700 CFU/Swab and 40 CFU/Swab | 1.60 logCFU/Swab and 2.76 logCFU/Swab and 1.30 logCFU/Swab and 2.43 logCFU/Swab and 3.43 logCFU/Swab | 2.30 | 4.35 | rate of inactivation ([2]; thirty second treatment): 1.45 log per 10 seconds of treatment; Log reduction ([2]; listed as thirty second hydrogen peroxide treatment (column 4)): 4.35
OO [H2O2 Control, hydrogen peroxide] |  |  |  |  |  | CFU/Swab [1, 3]: 5,200,000 CFU/Swab; logCFU/Swab [1, 3]: 6.72 logCFU/Swab
